From patent US20100113533A1, “Polymorph II of 4-[4-(Amino)-3- Fluorophenoxy]-N-Methylpyridine-2-Carboxamide” (BAYER SCHERING PHARMA AKTIENGESELLSCHAFT, priority 2006, published 2010)

Assay: Solubility in water and in organic solvents
Type: physicochemical

**Q.** With `CNC(=O)c1cc(Oc2ccc(NC(=O)Nc3ccc(Cl)c(C(F)(F)F)c3)c(F)c2)ccn1` [polymorph II, 4-[4-({[4-chloro-3-(trifluoromethyl)phenyl]carbamoyl}amino)-3-fluorophenoxy]-N-methylpyridine-2-carboxamide] as the molecule, how does the “solubility in organic solvents” value (organic solvents) read?
**A.** high solubility

**Q.** And the solubility in water (water)?
**A.** high solubility
